According to patent US8710038B2, “Pyrazole kinase modulators and methods of use” (Exelixis, Inc., priority 2004, dated 2014):

Experiments:
flt-3 = target: T1, flt-3 (Homo sapiens, UniProt P36888); test: flt-3 Luciferase-Coupled Chemiluminescent Kinase assay (LCCA); format: biochemical
T1 construct: baculovirus expressed human Flt-3 kinase domain R571-S993
T1 sequence (P36888 571-993): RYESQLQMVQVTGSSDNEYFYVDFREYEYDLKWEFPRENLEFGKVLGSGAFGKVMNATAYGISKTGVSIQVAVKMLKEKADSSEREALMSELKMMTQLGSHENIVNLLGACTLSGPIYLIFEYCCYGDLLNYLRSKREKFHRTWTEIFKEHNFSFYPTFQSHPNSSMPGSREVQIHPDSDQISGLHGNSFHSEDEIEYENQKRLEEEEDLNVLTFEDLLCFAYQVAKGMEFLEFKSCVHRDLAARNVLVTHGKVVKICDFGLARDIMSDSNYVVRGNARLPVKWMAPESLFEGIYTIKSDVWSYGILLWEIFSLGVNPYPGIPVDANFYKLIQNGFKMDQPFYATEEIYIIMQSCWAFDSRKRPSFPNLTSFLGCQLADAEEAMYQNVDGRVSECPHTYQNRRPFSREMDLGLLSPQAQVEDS
Procedure: In the LCCA assays, kinase activity is measured as the percent ATP consumed following the kinase reaction using luciferase-luciferin-coupled chemiluminescence. Greiner 384-well white, clear bottom, medium-binding plates are used for LCCA. Briefly, the kinase reaction is initiated by mixing compounds, ATP and kinase in a 20 uL volume. The mixture is incubated at ambient temperature for 2-4 hrs. At the end of the kinase reaction, a 20 uL luciferase-luciferin mix is added and the chemiluminescent signal is read using a Wallac Victor^2 reader. The luciferase-luciferin mix consists of 50 mM HEPES, pH 7.8, 8.5 ug/mL oxalic acid (pH 7.8), 5 (or 50) mM DTT, 0.4% Triton X-100, 0.25 mg/mL coenzyme A, 63 uM AMP, 28 ug/mL luciferin and 40,000 units of light/mL luciferase. For the LCCA assays, total ATP consumption has been standardized to 25-45% and the IC50 values correlates well with those determined by radiometric assays.
Flt-3 biochemical activity was assessed using a Luciferase-Coupled Chemiluminescent Kinase assay (LCCA) format. Kinase activity was measured as the percent ATP remaining following the kinase reaction. Remaining ATP was detected by luciferase-luciferin-coupled chemiluminescence. Specifically, the reaction was initiated by mixing test compounds, 5 μM ATP, 3 μM poly-EY and 5 nM Flt-3 (baculovirus expressed human Flt-3 kinase domain R571-S993) in a 20 uL assay buffer (20 mM Tris-HCL pH7.5, 10 mM MgCl2, 0.01% Triton X-100, 1 mM DTT, 2 mM MnCl2). The mixture is incubated at ambient temperature for 3 hours after which 20 uL luciferase-luciferin mix is added and the chemiluminescent signal read using a Wallac Victor^2 reader. The luciferase-luciferin mix consists of 50 mM HEPES, pH 7.8, 8.5 ug/mL oxalic acid (pH 7.8), 5 (or 50) mM DTT, 0.4% Triton X-100, 0.25 mg/mL coenzyme A, 63 uM AMP, 28 ug/mL luciferin and 40,000 units of light/mL luciferase.

c-Kit = c-Kit (Homo sapiens, UniProt P10721); test: c-Kit biochemical assay (AlphaScreen)
c-Kit, sequence (P10721 26-976): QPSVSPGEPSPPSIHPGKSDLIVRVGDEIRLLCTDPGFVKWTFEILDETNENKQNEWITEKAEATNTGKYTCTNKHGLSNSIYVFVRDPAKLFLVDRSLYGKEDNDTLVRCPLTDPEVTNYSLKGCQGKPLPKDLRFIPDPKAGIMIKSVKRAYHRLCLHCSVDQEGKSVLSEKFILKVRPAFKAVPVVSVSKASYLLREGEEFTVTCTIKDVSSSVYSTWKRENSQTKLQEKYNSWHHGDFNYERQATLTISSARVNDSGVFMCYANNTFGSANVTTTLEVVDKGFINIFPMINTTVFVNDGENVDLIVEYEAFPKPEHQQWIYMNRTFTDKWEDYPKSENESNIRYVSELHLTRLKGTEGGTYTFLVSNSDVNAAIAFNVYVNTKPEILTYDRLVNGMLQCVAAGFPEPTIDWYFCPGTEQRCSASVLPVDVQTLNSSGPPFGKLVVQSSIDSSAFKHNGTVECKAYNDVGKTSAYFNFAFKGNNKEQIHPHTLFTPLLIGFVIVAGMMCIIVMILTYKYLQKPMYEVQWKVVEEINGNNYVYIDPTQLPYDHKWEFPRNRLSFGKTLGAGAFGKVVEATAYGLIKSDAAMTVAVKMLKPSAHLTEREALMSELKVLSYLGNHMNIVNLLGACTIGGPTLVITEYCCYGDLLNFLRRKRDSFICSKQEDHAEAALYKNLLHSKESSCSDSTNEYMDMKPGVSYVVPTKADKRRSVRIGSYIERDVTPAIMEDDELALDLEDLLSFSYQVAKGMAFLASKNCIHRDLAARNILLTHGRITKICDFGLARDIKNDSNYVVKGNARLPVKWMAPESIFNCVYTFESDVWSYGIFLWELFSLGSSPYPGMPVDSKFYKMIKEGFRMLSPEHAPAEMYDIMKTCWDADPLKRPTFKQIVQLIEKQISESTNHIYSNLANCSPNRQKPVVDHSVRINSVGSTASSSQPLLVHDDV
From the text: AlphaScreen technology is a proximity assay which utilizes the increase in fluorescent signal occurring when donor and acceptor beads are close in proximity. Biotinylated poly(Glu,Tyr) 4:1 is used as the kinase substrate, in conjunction with streptavidin-coated donor beads and anti-phosphortyrosine antibody PY100-coated acceptor beads. Upon phosphorylation, the peptide substrate can bind to both donor and acceptor beads giving rise to an increase in fluorescence. Compounds, ATP, biotinylated poly(Glu, Tyr) and kinases are mixed in a volume of 20 uL for 1 hr at ambient temperature using Greiner 384-well white clear bottom medium binding plates. Following incubation a 10 uL solution containing […] AlphaScreen beads, 75 mM Hepes, pH 7.4, 300 mM NaCl, 120 mM EDTA, 0.3% BSA and 0.03% Tween-20 is added to each well. After 2-16 hr incubation of the beads, plates are read in a Perkin Elmer AlphaQuest reader. The IC50 values correlates well with those of radiometric assays.
c-Kit biochemical activity was assessed using AlphaScreen™ (Perkin Elmer) technology, described above. Test compounds, ATP, biotinylated poly(Glu, Tyr) and c-Kit kinase were combined in a volume of 20 μL in a 384-well white, medium binding microtiter plate (Greiner). Reaction mixtures were incubated for 1 hr at ambient temperature. Reactions were quenched by addition of 10 uL of […] AlphaScreen bead suspension containing 75 mM Hepes, pH 7.4, 300 mM NaCl, 120 mM EDTA, 0.3% BSA and 0.03% Tween-20. After 16 hr incubation at ambient temperature plates were read using an AlphaQuest reader (Perkin Elmer).

Structure (SMILES) | IC50 (flt-3) [nM] | IC50 (c-Kit) [nM]
CC(C)(C)OC(=O)Nc1ccc(-c2cc(-c3nc4ccccc4[nH]3)n[nH]2)cc1 [Entry 52, 1,1-dimethylethyl{4-[3-(1H-benzimidazol-2-yl)-1H-pyrazol-5-yl]phenyl}carbamate] | 500 to 5000 | 50 to 500
CCN1CCN(c2ccc3[nH]c(-c4cc(-c5ccc(NC(=O)NC(C)(C)C)cc5)[nH]n4)nc3c2)CC1 [Entry 64, N-(1,1-dimethylethyl)-N′-(4-{3-[5-(4-ethylpiperazin-1-yl)-1H-benzimidazol-2-yl]-1H-pyrazol-5-yl}phenyl)urea] | 500 to 5000 | 500 to 5000
Oc1ccc(/C=C/c2cc(-c3ccncc3)n[nH]2)cc1 [Entry 65, 4-[(E)-2-(3-pyridin-4-yl-1H-pyrazol-5-yl)ethenyl]phenol] | 50 to 500 | 500 to 5000
Oc1ccc(/C=C/c2cc(-c3cccc(Cl)c3)n[nH]2)cc1 [Entry 66, 4-{(E)-2-[3-(3-chlorophenyl)-1H-pyrazol-5-yl]ethenyl}phenol] | 500 to 5000 | 500 to 5000
COc1ccccc1-c1cc(/C=C/c2ccc(O)cc2)n[nH]1 [Entry 67, 4-((E)-2-{5-[2-(methyloxy)phenyl]-1H-pyrazol-3-yl}ethenyl)phenol] | 500 to 5000 | 500 to 5000
Oc1ccc(/C=C/c2cc(-c3ccccc3Cl)n[nH]2)cc1 [Entry 68, 4-{(E)-2-[3-(2-chlorophenyl)-1H-pyrazol-5-yl]ethenyl}phenol] | 50 to 500 | 500 to 5000
Oc1ccc(/C=C/c2cc(-c3cccnc3)n[nH]2)cc1 [Entry 69, 4-[(E)-2-(3-pyridin-3-yl-1H-pyrazol-5-yl)ethenyl]phenol] | 50 to 500 | 500 to 5000
COc1cccc(-c2cc(/C=C/c3ccc(O)cc3)n[nH]2)c1 [Entry 70, 4-((E)-2-{5-[3-(methyloxy)phenyl]-1H-pyrazol-3-yl}ethenyl)phenol] | 500 to 5000 | 500 to 5000
CC(C)(C)OC(=O)Nc1ccc(-c2cc(/C=C/c3ccccc3)n[nH]2)cc1 [Entry 71, 1,1-dimethylethyl(4-{3-[(E)-2-phenylethenyl]-1H-pyrazol-5-yl}phenyl)carbamate] | 500 to 5000 | 500 to 5000
Oc1ccc(/C=C/c2cc(-c3ccc(Cl)c(Cl)c3)n[nH]2)cc1 [Entry 72, 4-{(E)-2-[3-(3,4-dichlorophenyl)-1H-pyrazol-5-yl]ethenyl}phenol] | 500 to 5000 | 500 to 5000
Oc1ccc(/C=C/c2cc(-c3cccc(F)c3)[nH]n2)cc1 [Entry 74, 4-{(E)-2-[5-(3-fluorophenyl)-1H-pyrazol-3-yl]ethenyl}phenol] | 50 to 500 | 500 to 5000
c1ccc(-c2cc(-c3nc4ccccc4[nH]3)n[nH]2)cc1 [Entry 75, 2-(5-phenyl-1H-pyrazol-3-yl)-1H-benzimidazole] | 500 to 5000 | 500 to 5000
Nc1ccc(-c2cc(-c3nc4ccccc4[nH]3)n[nH]2)cc1 [Entry 77, 4-[3-(1H-benzimidazol-2-yl)-1H-pyrazol-5-yl]aniline] | 500 to 5000 | 500 to 5000
Oc1ccc(/C=C/c2cc(-c3cccc(-c4ccccc4)c3)[nH]n2)cc1 [Entry 78, 4-[(E)-2-(5-biphenyl-3-yl-1H-pyrazol-3-yl)ethenyl]phenol] | 500 to 5000 | 500 to 5000

Results, then the compound that gave them:

IC50 (flt-3) [nM] | IC50 (c-Kit) [nM] | Structure (SMILES)
< 50 | < 50 | CN1CCN(c2ccc3nc(-c4cc(-c5ccc(NC(=O)Nc6ccc(C(F)(F)F)cc6)cc5)[nH]n4)[nH]c3c2)CC1 [Entry 13, N-(4-{3-[6-(4-methylpiperazin-1-yl)-1H-benzimidazol-2-yl]-1H-pyrazol-5-yl}phenyl)-N′-[4-(trifluoromethyl)phenyl]urea]
< 50 | < 50 | Cc1ccc(NC(=O)Nc2ccc(-c3cc(-c4ccc(N5CCN(C)CC5)cc4)[nH]n3)cc2)cc1C [Entry 17, N-(3,4-dimethylphenyl)-N′-(4-{5-[4-(4-methylpiperazin-1-yl)phenyl]-1H-pyrazol-3-yl}phenyl)urea]
< 50 | < 50 | CN1CCN(c2ccc3nc(-c4cc(-c5ccc(NC(=O)Nc6cccc(C#N)c6)cc5)[nH]n4)[nH]c3c2)CC1 [Entry 24, N-(3-cyanophenyl)-N′-(4-{3-[6-(4-methylpiperazin-1-yl)-1H-benzimidazol-2-yl]-1H-pyrazol-5-yl}phenyl)urea]
< 50 | < 50 | COc1ccc(NC(=O)Nc2ccc(-c3cc(-c4nc5cc(N6CCN(C)CC6)ccc5[nH]4)n[nH]3)cc2)cc1OC [Entry 26, N-[3,4-bis(methyloxy)phenyl]-N′-(4-{3-[5-(4-methylpiperazin-1-yl)-1H-benzimidazol-2-yl]-1H-pyrazol-5-yl}phenyl)urea]
< 50 | < 50 | COc1ccc(Cl)cc1NC(=O)Nc1ccc(-c2cc(-c3ccc(N4CCN(C)CC4)cc3)[nH]n2)cc1 [Entry 27, N-[5-chloro-2-(methyloxy)phenyl]-N′-(4-{5-[4-(4-methylpiperazin-1-yl)phenyl]-1H-pyrazol-3-yl}phenyl)urea]
< 50 | < 50 | CN1CCN(c2ccc(-c3cc(-c4ccc(NC(=O)Nc5ccc(Oc6ccccc6)cc5)cc4)n[nH]3)cc2)CC1 [Entry 28, N-(4-{5-[4-(4-methylpiperazin-1-yl)phenyl]-1H-pyrazol-3-yl}phenyl)-N′-[4-(phenyloxy)phenyl]urea]
< 50 | < 50 | Cc1ccc(F)cc1NC(=O)Nc1ccc(-c2cc(-c3nc4ccc(N5CCN(C)CC5)cc4[nH]3)n[nH]2)cc1 [Entry 38, N-(5-fluoro-2-methylphenyl)-N′-(4-{3-[6-(4-methylpiperazin-1-yl)-1H-benzimidazol-2-yl]-1H-pyrazol-5-yl}phenyl)urea]
< 50 | 50 to 500 | CN1CCN(c2cccc(-c3cc(-c4ccc(NC(=O)Nc5ccc(Cl)c(C(F)(F)F)c5)cc4)[nH]n3)c2)CC1 [Entry 40, N-[4-chloro-3-(trifluoromethyl)phenyl]-N′-(4-{3-[3-(4-methylpiperazin-1-yl)phenyl]-1H-pyrazol-5-yl}phenyl)urea]
< 50 | 50 to 500 | COc1ccc(NC(=O)Nc2ccc(-c3cc(-c4ccc(N5CCN(C)CC5)cc4)[nH]n3)cc2)c(OC)c1 [Entry 43, N-[2,4-bis(methyloxy)phenyl]-N′-(4-{5-[4-(4-methylpiperazin-1-yl)phenyl]-1H-pyrazol-3-yl}phenyl)urea]
50 to 500 | 500 to 5000 | Oc1ccc(/C=C/c2cc(-c3ccccn3)[nH]n2)cc1 [Entry 62, 4-[(E)-2-(5-pyridin-2-yl-1H-pyrazol-3-yl)ethenyl]phenol]
50 to 500 | 500 to 5000 | Oc1ccc(/C=C/c2cc(-c3cc4cc(Cl)ccc4o3)n[nH]2)cc1 [Entry 63, 4-{(E)-2-[3-(5-chloro-1-benzofuran-2-yl)-1H-pyrazol-5-yl]ethenyl}phenol]
< 50 | 500 to 5000 | Oc1ccc2cc(-c3cc(/C=C/c4ccccc4)[nH]n3)oc2c1 [Entry 73, 2-{5-[(E)-2-phenylethenyl]-1H-pyrazol-3-yl}-1-benzofuran-6-ol]
